# Measurements as given in article PMC10133546, “Simultaneous determination of multiple components in rat plasma by UHPLC-sMRM for pharmacokinetic studies after oral administration of Qingjin Yiqi Granules” (Frontiers in Pharmacology, 2023).
# How the values were obtained:
# [1] = Stability of the working solution (4°C for 1 month); assay type: physicochemical
# [2] = Stability of analytes in rat plasma (auto-sampler, freeze-thaw, room temperature, long-term); conditions: for Autosampler for 24 h Accuracy (%): autosampler 24 h; for Room temperature for 24 h Accuracy (%): room temperature 24 h; for Freeze thaw cycles Accuracy (%): three freeze-thaw cycles
# Description: The stability of analytes in plasma was evaluated by analyzing 4 QC samples (n = 6). The stability was included auto-sampler stability (keeping the sample in auto-sampler for 24 h), three times of freeze-thaw cycles stability (freezing cycle at −80°C, thawing cycle at room temperature), room temperature stability (storing samples at room temperature for 24 h), long-term stability (storing samples at −80°C for 1 month). […] Accompanying curve was established when testing the sample, calculate and compare the ratio of the actual measured concentration to the theoretical concentration, expressed in accuracy and RSD.
Working solution Accuracy (%) ([1]; 500 ng/mL),Room temperature for 24 h Accuracy (%) ([2]; 12.5 ng/mL),Freeze thaw cycles Accuracy (%) ([2]; 12.5 ng/mL),"−80°C for 1month Accuracy (%) ([2]; 12.5 ng/mL, −80°C 1 month)",Room temperature for 24 h Accuracy (%) ([2]; 500 ng/mL),"−80°C for 1month Accuracy (%) ([2]; 500 ng/mL, −80°C 1 month)",Working solution Accuracy (%) ([1]; 12.5 ng/mL),SMILES,Working solution Accuracy (%) ([1]; 100 ng/mL),Autosampler for 24 h Accuracy (%) ([2]; 100 ng/mL),Room temperature for 24 h Accuracy (%) ([2]; 100 ng/mL),Freeze thaw cycles Accuracy (%) ([2]; 100 ng/mL),"−80°C for 1month Accuracy (%) ([2]; 100 ng/mL, −80°C 1 month)",Working solution Accuracy (%) ([1]; 1.56 ng/mL),Autosampler for 24 h Accuracy (%) ([2]; 1.56 ng/mL),Room temperature for 24 h Accuracy (%) ([2]; 1.56 ng/mL),Freeze thaw cycles Accuracy (%) ([2]; 1.56 ng/mL),"−80°C for 1month Accuracy (%) ([2]; 1.56 ng/mL, −80°C 1 month)",Autosampler for 24 h Accuracy (%) ([2]; 12.5 ng/mL),Autosampler for 24 h Accuracy (%) ([2]; 500 ng/mL),Freeze thaw cycles Accuracy (%) ([2]; 500 ng/mL),further results
,,,,,,,CC(C)=CCC[C@](C)(O)[C@H]1CC[C@]2(C)[C@@H]1[C@H](O)C[C@@H]1[C@@]3(C)CC[C@H](O)C(C)(C)[C@@H]3[C@@H](O[C@@H]3O[C@H](CO)[C@@H](O)[C@H](O)[C@H]3O)C[C@]12C [ginsenoside Rh1],95.1%,90.8%,96.5%,100.0%,93.5%,,,,,,,,,"Working solution Accuracy (%) ([1]; 50 ng/mL): 106.0%; Autosampler for 24 h Accuracy (%) ([2]; 50 ng/mL): 86.5%; Room temperature for 24 h Accuracy (%) ([2]; 50 ng/mL): 100.0%; −80°C for 1month Accuracy (%) ([2]; 50 ng/mL, −80°C 1 month): 107.0%; Autosampler for 24 h Accuracy (%) ([2]; concentration 200 ng/mL): 96.5%; Autosampler for 24 h Accuracy (%) ([2]; concentration 500 ng/mL): 108.0%; Room temperature for 24 h Accuracy (%) ([2]; concentration 500 ng/mL): 98.7%; Freeze thaw cycles Accuracy (%) ([2]; concentration 500 ng/mL): 94.1%; −80°C for 1month Accuracy (%) ([2]; −80°C for 1 month, concentration 500 ng/mL): 114.0%"
,,,,,,,CC(=O)O[C@H]1[C@H](O[C@H]2CC[C@]34C[C@]35CC[C@]3(C)[C@@H]([C@@]6(C)CC[C@@H](C(C)(C)O)O6)[C@@H](O)C[C@@]3(C)[C@@H]5C[C@H](O[C@@H]3O[C@H](CO)[C@@H](O)[C@H](O)[C@H]3O)[C@H]4C2(C)C)OC[C@@H](O)[C@@H]1O [astragaloside II(IS)],,,,,,,,,,,,,,"Working solution Accuracy (%) ([1]; concentration 100 ng/mL): 96.7%; Autosampler for 24 h Accuracy (%) ([2]; concentration 100 ng/mL): 105.0%; −80°C for 1month Accuracy (%) ([2]; −80°C for 1 month, concentration 100 ng/mL): 115.0%"
96.8%,90.6%,84.5%,90.6%,100.0%,104.0%,87.6%,O=C(/C=C/c1ccc(O)c(O)c1)O[C@H]1[C@H](O)C[C@](O)(C(=O)O)C[C@H]1O [cryptochlorogenic acid],94.6%,92.7%,,88.9%,110.0%,,,,,,94.6%,109.0%,98.7%,"Working solution Accuracy (%) ([1]; 50 ng/mL): 95.0%; Autosampler for 24 h Accuracy (%) ([2]; 50 ng/mL): 93.1%; Room temperature for 24 h Accuracy (%) ([2]; 50 ng/mL): 91.2%; Freeze thaw cycles Accuracy (%) ([2]; 50 ng/mL): 86.6%; −80°C for 1month Accuracy (%) ([2]; 50 ng/mL, −80°C 1 month): 107.0%"
88.5%,108.0%,98.1%,,95.7%,,105.0%,C[C@]1(OC(=O)/C=C/c2ccccc2)C[C@@H](O)[C@]2(O)C=CO[C@@H](O[C@@H]3O[C@H](CO)[C@@H](O)[C@H](O)[C@H]3O)[C@@H]21 [harpagoside],,93.8%,100.0%,93.2%,,83.8%,105.0%,95.0%,91.5%,86.6%,101.0%,,95.1%,
98.2%,94.4%,97.6%,85.7%,95.2%,94.2%,93.5%,O=C1C[C@@H](c2ccc(O)cc2)Oc2cc(O)cc(O)c21 [naringenin],85.6%,99.5%,92.9%,,97.4%,,,,,,,107.0%,,"Working solution Accuracy (%) ([1]; 50 ng/mL): 102.0%; Autosampler for 24 h Accuracy (%) ([2]; 50 ng/mL): 98.3%; −80°C for 1month Accuracy (%) ([2]; 50 ng/mL, −80°C 1 month): 98.2%"
91.3%,109.0%,108.0%,92.2%,93.2%,98.2%,87.5%,COc1ccc(-c2coc3cc(O[C@@H]4O[C@H](CO)[C@@H](O)[C@H](O)[C@H]4O)ccc3c2=O)cc1 [ononin],104.0%,94.4%,86.9%,99.0%,,84.3%,,98.6%,95.6%,111.0%,95.3%,104.0%,,

SMILES,Working solution Accuracy (%) ([1]; 500 ng/mL),Room temperature for 24 h Accuracy (%) ([2]; 12.5 ng/mL),Freeze thaw cycles Accuracy (%) ([2]; 12.5 ng/mL),"−80°C for 1month Accuracy (%) ([2]; 12.5 ng/mL, −80°C 1 month)",Room temperature for 24 h Accuracy (%) ([2]; 500 ng/mL),"−80°C for 1month Accuracy (%) ([2]; 500 ng/mL, −80°C 1 month)",Working solution Accuracy (%) ([1]; 12.5 ng/mL),Working solution Accuracy (%) ([1]; 100 ng/mL),Autosampler for 24 h Accuracy (%) ([2]; 100 ng/mL),Room temperature for 24 h Accuracy (%) ([2]; 100 ng/mL),Freeze thaw cycles Accuracy (%) ([2]; 100 ng/mL),"−80°C for 1month Accuracy (%) ([2]; 100 ng/mL, −80°C 1 month)",Working solution Accuracy (%) ([1]; 1.56 ng/mL),Autosampler for 24 h Accuracy (%) ([2]; 1.56 ng/mL),Room temperature for 24 h Accuracy (%) ([2]; 1.56 ng/mL),Freeze thaw cycles Accuracy (%) ([2]; 1.56 ng/mL),"−80°C for 1month Accuracy (%) ([2]; 1.56 ng/mL, −80°C 1 month)",Autosampler for 24 h Accuracy (%) ([2]; 12.5 ng/mL),Autosampler for 24 h Accuracy (%) ([2]; 500 ng/mL),Freeze thaw cycles Accuracy (%) ([2]; 500 ng/mL),further results
C[C@@H]1O[C@@H](Oc2c(-c3ccc(O)c(O)c3)oc3cc(O)cc(O)c3c2=O)[C@H](O)[C@H](O)[C@H]1O [quercitrin],99.1%,87.1%,90.0%,97.1%,98.0%,96.0%,,90.4%,98.3%,99.6%,100.0%,95.6%,92.6%,95.2%,85.2%,86.2%,86.7%,94.7%,108.0%,89.3%,
O=c1c(O[C@@H]2O[C@H](CO)[C@H](O)[C@H](O)[C@H]2O)c(-c2ccc(O)c(O)c2)oc2cc(O)cc(O)c12 [hyperoside],95.0%,,98.4%,100.0%,99.1%,,92.1%,91.2%,90.5%,95.4%,93.5%,88.8%,,111.0%,91.6%,97.6%,106.0%,101.0%,95.8%,95.3%,
O=C(/C=C/c1ccc(O[C@@H]2O[C@H](CO)[C@@H](O)[C@H](O)[C@H]2O)cc1)c1ccc(O)cc1O [isoliquiritin],93.3%,87.5%,90.9%,,96.7%,95.0%,110.0%,,107.0%,96.6%,94.5%,106.0%,106.0%,99.3%,88.9%,95.5%,83.8%,108.0%,96.3%,91.6%,
